The NIST ThermoML archive (doi:10.1021/acs.jced.5b00820)
± gives the expanded uncertainty stated by the source.

Experiment: xn = mol fraction of the nth substance listed
Conditions: 102.2 kPa, Liquid, Vibrating tube method

C[Si](C)(O[Si](C)(C)c1ccccc1)c1ccccc1 [1,3-diphenyltetramethyldisiloxane] + C[Si]1(CCC(F)(F)F)O[Si](C)(CCC(F)(F)F)O[Si](C)(CCC(F)(F)F)O1
mass density [kg/m3]
Conditions | 308.15 K | 313.15 K | 318.15 K | 323.15 K | 328.15 K
x1 = 0.0501 | 1225.8 ± 0.23 | 1219.39 ± 0.23 | 1212.88 ± 0.23 | 1206.4 ± 0.23 | 1199.88 ± 0.23
x1 = 0.1001 | 1214.52 ± 0.23 | 1208.2 ± 0.23 | 1201.82 ± 0.23 | 1195.45 ± 0.23 | 1189.07 ± 0.23
x1 = 0.1499 | 1203.4 ± 0.23 | 1197.13 ± 0.23 | 1190.88 ± 0.23 | 1184.63 ± 0.23 | 1178.37 ± 0.23
x1 = 0.2005 | 1191.71 ± 0.23 | 1185.57 ± 0.23 | 1179.46 ± 0.23 | 1173.35 ± 0.23 | 1167.25 ± 0.23
x1 = 0.2497 | 1180.12 ± 0.23 | 1174.1 ± 0.23 | 1168.1 ± 0.23 | 1162.13 ± 0.23 | 1156.13 ± 0.22
x1 = 0.3 | 1167.98 ± 0.23 | 1162.08 ± 0.23 | 1156.21 ± 0.22 | 1150.35 ± 0.22 | 1144.49 ± 0.22
x1 = 0.3431 | 1157.27 ± 0.23 | 1151.54 ± 0.22 | 1145.79 ± 0.22 | 1140.01 ± 0.22 | 1134.24 ± 0.22
x1 = 0.4001 | 1142.74 ± 0.22 | 1137.19 ± 0.22 | 1131.56 ± 0.22 | 1125.93 ± 0.22 | 1120.32 ± 0.22
x1 = 0.45 | 1130.1 ± 0.22 | 1124.64 ± 0.22 | 1119.13 ± 0.22 | 1113.61 ± 0.22 | 1108.09 ± 0.22
x1 = 0.4998 | 1117.1 ± 0.22 | 1111.69 ± 0.22 | 1106.32 ± 0.22 | 1100.93 ± 0.22 | 1095.54 ± 0.22
x1 = 0.5482 | 1104.11 ± 0.22 | 1098.84 ± 0.22 | 1093.55 ± 0.22 | 1088.31 ± 0.22 | 1083.03 ± 0.22
x1 = 0.5996 | 1089.99 ± 0.22 | 1084.84 ± 0.22 | 1079.71 ± 0.22 | 1074.57 ± 0.22 | 1069.43 ± 0.22
x1 = 0.6501 | 1075.78 ± 0.22 | 1070.7 ± 0.22 | 1065.65 ± 0.22 | 1060.62 ± 0.22 | 1055.6 ± 0.22
x1 = 0.7 | 1061.47 ± 0.22 | 1056.57 ± 0.22 | 1051.69 ± 0.22 | 1046.82 ± 0.21 | 1041.93 ± 0.21
x1 = 0.75 | 1046.74 ± 0.22 | 1041.96 ± 0.22 | 1037.22 ± 0.21 | 1032.47 ± 0.21 | 1027.7 ± 0.21
x1 = 0.8001 | 1031.67 ± 0.21 | 1027.02 ± 0.21 | 1022.41 ± 0.21 | 1017.79 ± 0.21 | 1013.17 ± 0.21
x1 = 0.8499 | 1016.33 ± 0.21 | 1011.73 ± 0.21 | 1007.33 ± 0.21 | 1002.84 ± 0.21 | 998.35 ± 0.21
x1 = 0.8998 | 1000.6 ± 0.21 | 996.22 ± 0.21 | 991.87 ± 0.21 | 987.37 ± 0.21 | 983.15 ± 0.21
x1 = 0.95 | 984.46 ± 0.21 | 980.22 ± 0.22 | 976.02 ± 0.22 | 971.79 ± 0.22 | 967.58 ± 0.22
x1 = 1 | 967.9 ± 0.21 | 963.8 ± 0.21 | 959.75 ± 0.21 | 955.65 ± 0.21 | 951.57 ± 0.21
